Test systems include DLD-1 colon; DMS 114 small cell lung; DMS 273 small cell lung; HOP-18 NSCLC; IGROV1 ovarian; KM20L2 colon; LXFL 529 NSCLC; M19-MEL melanoma; NCI-H226 lung; NCI-H460 lung; OVCAR-8 ovarian; SF-539 CNS; SW-620 colon; UACC-62 melanoma; XF 498 CNS; SNB-78 CNS; NCI/ADR-RES ovarian; T-47D breast.
Common to all, as to assay: growth of human tumour cells (NCI), 48 h

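48-hour exposure; five concentrations; linearly interpolated endpoints. TGI: concentration producing complete growth inhibition.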

Experimental findings from PubChem BioAssay (NCI) are described below.

As to `CCC/C=C1\CCC(CN(C)C)C1=O` (stereo not given), the TGI stood at 5.54 µM in the assay on DLD-1 colon; 31.2 µM in the assay with DMS 114 small cell lung; 27.1 µM in the assay with DMS 273 small cell lung; 39 µM with HOP-18 NSCLC; 34.4 µM in the assay with IGROV1 ovarian; 27.2 µM in the assay with KM20L2 colon. The TGI in the assay with LXFL 529 NSCLC is 3.33 µM; with M19-MEL melanoma, 26.7 µM; in the assay with NCI-H226 lung it was 35.1 µM; with NCI-H460 lung, over 63.2 µM; in the assay with OVCAR-8 ovarian it was 33.7 µM; in the assay on SF-539 CNS, 25.3 µM. In addition, the TGI with SW-620 colon amounted to 11.6 µM; in the assay on UACC-62 melanoma it was 28.2 µM; in the assay on XF 498 CNS it was 11.1 µM.

On to `Cc1c(CCO)c(=O)n2c([nH]c3ccccc32)c1C#N`, for which the TGI in the assay on DLD-1 colon, with DMS 114 small cell lung, with DMS 273 small cell lung, in the assay with HOP-18 NSCLC, in the assay on IGROV1 ovarian and in the assay on KM20L2 colon was over 100 µM each time. For the same molecule, the TGI in the assay on LXFL 529 NSCLC is over 100 µM; in the assay on M19-MEL melanoma it was over 100 µM; in the assay with NCI-H226 lung, over 100 µM; in the assay with NCI-H460 lung, 98.8 µM; in the assay with OVCAR-8 ovarian, over 100 µM; in the assay on SF-539 CNS it was over 100 µM. Besides, the TGI with SNB-78 CNS, in the assay on SW-620 colon, in the assay on UACC-62 melanoma and with XF 498 CNS was over 100 µM throughout.

With `O=C1c2ccccc2C(=O)c2c(O)c(NCCCNCCO)cc(O)c21`, the TGI stood at 19.8 µM with DLD-1 colon; 26.2 µM in the assay with DMS 114 small cell lung; 22.7 µM with DMS 273 small cell lung; 17.5 µM in the assay with HOP-18 NSCLC; 28.8 µM in the assay with IGROV1 ovarian; 29.8 µM with LXFL 529 NSCLC. Also, the TGI is 27.4 µM in the assay with M19-MEL melanoma; 22 µM in the assay with NCI-H226 lung; 17.8 µM with NCI-H460 lung; 23.7 µM in the assay on OVCAR-8 ovarian; 22.2 µM in the assay on SF-539 CNS; 39.8 µM in the assay on SNB-78 CNS. For the same molecule, the values for the TGI in the assay on SW-620 colon, with UACC-62 melanoma and with XF 498 CNS were 18.4 µM, 36.5 µM and 32.7 µM, respectively.

`Cc1nc2c(o1)C(=Nc1ccccc1)c1ccccc1C2=O`: the TGI turned out to be 32 µM in the assay with DLD-1 colon; 8.57 µM in the assay with DMS 114 small cell lung; 23.2 µM with DMS 273 small cell lung; 18 µM in the assay with HOP-18 NSCLC; 40.1 µM in the assay with IGROV1 ovarian; 31.2 µM in the assay on KM20L2 colon. Moreover, the TGI in the assay on LXFL 529 NSCLC turned out to be 24.1 µM; in the assay on M19-MEL melanoma, 3.65 µM; with NCI-H460 lung, 25.5 µM; in the assay with OVCAR-8 ovarian it was 13.4 µM; with SF-539 CNS it was 16.7 µM; in the assay on SNB-78 CNS it was 37.6 µM. For the same molecule, the TGI in the assay on SW-620 colon was 23.2 µM; in the assay on UACC-62 melanoma, 11 µM; in the assay with XF 498 CNS, 12.5 µM.

Regarding `CC1(C)O[C@@H](CCl)C[C@H](C#N)O1`, the TGI with DLD-1 colon, with DMS 114 small cell lung, in the assay on DMS 273 small cell lung, with HOP-18 NSCLC, with IGROV1 ovarian and in the assay on KM20L2 colon was over 100 µM in each case. In addition, the TGI in the assay with M19-MEL melanoma, in the assay with NCI-H226 lung, with NCI-H460 lung, with OVCAR-8 ovarian, in the assay with SF-539 CNS and in the assay on SNB-78 CNS was over 100 µM throughout. The TGI in the assay on SW-620 colon, in the assay with UACC-62 melanoma and with XF 498 CNS was over 100 µM in each case.

For `CCCC(C)n1c(C)nc2c1C(=O)c1ccccc1C2=O` (stereo not given), the TGI in the assay with DLD-1 colon was over 100 µM; in the assay with DMS 273 small cell lung it was 30.8 µM; in the assay on IGROV1 ovarian it was over 100 µM; with KM20L2 colon, over 100 µM; with LXFL 529 NSCLC, over 100 µM; in the assay on M19-MEL melanoma, 29.1 µM. The TGI is over 100 µM in the assay on NCI-H226 lung; 16.8 µM in the assay with NCI-H460 lung; over 100 µM in the assay on OVCAR-8 ovarian; 98 µM in the assay with SF-539 CNS; over 100 µM in the assay on SNB-78 CNS; over 100 µM in the assay on SW-620 colon. Further, the TGI was 23.8 µM in the assay with UACC-62 melanoma and 50.1 µM in the assay on XF 498 CNS.

Take `COc1cc(CNc2cnc3cc(N)ccc3n2)cc(OC)c1OC`: the TGI with DLD-1 colon was over 100 µM; in the assay with DMS 114 small cell lung it was 61 µM; with DMS 273 small cell lung it was 2.43 µM; in the assay with HOP-18 NSCLC, over 100 µM; with IGROV1 ovarian, over 100 µM; in the assay on KM20L2 colon it was 37.7 µM. Also, the TGI with LXFL 529 NSCLC was over 100 µM; in the assay with M19-MEL melanoma, over 100 µM; in the assay with NCI-H460 lung it was over 100 µM; in the assay on OVCAR-8 ovarian, over 100 µM; in the assay on SF-539 CNS, 42.4 µM; in the assay on SW-620 colon, over 100 µM. The TGI with UACC-62 melanoma and in the assay with XF 498 CNS was over 100 µM throughout.

`COP(=O)(OC)C(NC(=O)C(F)(F)F)(c1ccccc1)C(F)(F)F` (stereo not given): the TGI in the assay with DLD-1 colon, with DMS 114 small cell lung, with DMS 273 small cell lung, with HOP-18 NSCLC, in the assay with IGROV1 ovarian and with KM20L2 colon was over 100 µM throughout. Besides, the TGI in the assay on M19-MEL melanoma, in the assay with NCI-H226 lung, in the assay on NCI-H460 lung, in the assay on OVCAR-8 ovarian, in the assay with SF-539 CNS and in the assay with SW-620 colon was over 100 µM in each case. The TGI in the assay on UACC-62 melanoma and with XF 498 CNS was over 100 µM each time.

With `C=CCc1cc(-c2cc(CC=C)c(O)c(CN(CC)CC)c2)cc(CN(CC)CC)c1O`, the TGI is over 100 µM in the assay on DLD-1 colon; over 100 µM in the assay on DMS 114 small cell lung; 82.5 µM in the assay with DMS 273 small cell lung; over 100 µM with HOP-18 NSCLC; over 100 µM in the assay with IGROV1 ovarian; 40 µM with KM20L2 colon. Further, the TGI is over 100 µM in the assay with LXFL 529 NSCLC; 43.8 µM in the assay on M19-MEL melanoma; 98.7 µM in the assay on NCI-H226 lung; 64.9 µM with NCI-H460 lung; over 100 µM with NCI/ADR-RES ovarian; over 100 µM in the assay with OVCAR-8 ovarian. Further, the TGI in the assay with SF-539 CNS is 54.3 µM; with SNB-78 CNS, over 100 µM; in the assay on SW-620 colon, 76.2 µM; with T-47D breast it was over 100 µM; with UACC-62 melanoma, 48.5 µM.
